In brackets after ≈: the same amount, converted by molar mass.
Key:
[1] = Inhibition of Candida albicans MY1055 NADH:cytochrome bc1 reductase
Candida albicans = assay: Antifungal activity against Candida albicans MY1055 assessed as growth inhibition after 24 hrs by liquid microdilution assay; assay type: functional; settings: MY1055, 24 h
[2] = Inhibition of rat liver NADH:cytochrome bc1 reductase

C/C=C/[C@@H]1[C@H]2C[C@@H](CO)CC[C@@H]2C(C)=C[C@H]1C(=O)c1c(O)c(-c2ccc(OC(=O)CC)cc2)c[nH]c1=O
IC50 [1]: 0.008 µg/mL (≈ 0.0158 µM) | MIC (Candida albicans): 0.25 µg/mL (≈ 0.494 µM) | IC50 [2]: > 0.8 µg/mL

C/C=C/[C@@H]1[C@H]2C[C@@H](C)CC[C@@H]2C(C)=C[C@H]1C(=O)c1c(O)c(-c2ccc(OCC(=O)OC(C)(C)C)cc2)cn(CC(=O)OC(C)(C)C)c1=O
IC50 [1]: > 1.6 µg/mL | MIC (Candida albicans): > 5 µg/mL | IC50 [2]: 1.6 µg/mL (≈ 2.42 µM)

C/C=C/[C@@H]1[C@H]2C[C@@H](COC(=O)C3CC3)CC[C@@H]2C(C)=C[C@H]1C(=O)c1c(O)c(-c2ccc(OC(=O)C3CC3)cc2)c[nH]c1=O
IC50 [1]: 0.0008 µg/mL (≈ 0.00137 µM) | MIC (Candida albicans): > 5 µg/mL | IC50 [2]: 0.01 µg/mL (≈ 0.0171 µM)

C/C=C/[C@@H]1[C@H]2C[C@@H](C)CC[C@@H]2C(C)=C[C@H]1C(=O)c1c(O)c(-c2ccc(OC(=O)CCCCNC(=O)OC(C)(C)C)cc2)c[nH]c1=O
IC50 [1]: 0.005 µg/mL (≈ 0.0079 µM) | MIC (Candida albicans): 0.25 µg/mL (≈ 0.395 µM) | IC50 [2]: > 1 µg/mL

C/C=C/[C@@H]1[C@H]2C[C@@H](C)CC[C@@H]2C(C)=C[C@H]1C(=O)c1c(O)c(-c2ccc(OC)cc2)cn(C)c1=O
IC50 [1]: 0.008 µg/mL (≈ 0.0173 µM) | MIC (Candida albicans): > 1 µg/mL

C/C=C/[C@@H]1[C@H]2C[C@@H](C)CC[C@@H]2C(C)=C[C@H]1C(=O)c1c(O)c(-c2ccc(OC(=O)CCCNC(=O)OC(C)(C)C)cc2)c[nH]c1=O
IC50 [1]: 0.004 µg/mL (≈ 0.00646 µM) | MIC (Candida albicans): 0.125 µg/mL (≈ 0.202 µM) | IC50 [2]: > 1 µg/mL

C/C=C/[C@@H]1[C@H]2C[C@@H](C)CC[C@@H]2C(C)=C[C@H]1C(=O)c1c(O)c(-c2ccc(OC(=O)C3CCC3)cc2)c[nH]c1=O
IC50 [1]: 0.002 µg/mL (≈ 0.00388 µM) | MIC (Candida albicans): 0.062 µg/mL (≈ 0.12 µM) | IC50 [2]: > 0.8 µg/mL

C/C=C/[C@@H]1[C@H]2C[C@@H](C)CC[C@@H]2[C@](C)(Br)[C@H]2Oc3ncc(-c4ccc(O)c(Br)c4Br)c(O)c3C(=O)[C@@H]12
IC50 [1]: 1 µg/mL (≈ 1.49 µM) | MIC (Candida albicans): > 5 µg/mL | IC50 [2]: 1 µg/mL (≈ 1.49 µM)

C/C=C/[C@@H]1[C@H]2C[C@@H](C)CC[C@@H]2C(C)=C[C@H]1C(=O)c1c(O)c(-c2ccc(O)cc2)cn(CC)c1=O
MIC (Candida albicans): 0.312 µg/mL (≈ 0.676 µM)

C=CCn1cc(-c2ccc(O)cc2)c(O)c(C(=O)[C@@H]2C=C(C)[C@H]3CC[C@H](C)C[C@@H]3[C@H]2/C=C/C)c1=O
IC50 [1]: 0.008 µg/mL (≈ 0.0169 µM) | MIC (Candida albicans): 1 µg/mL (≈ 2.11 µM) | IC50 [2]: 1 µg/mL (≈ 2.11 µM)

C/C=C/[C@@H]1[C@H]2C[C@@H](C)CC[C@@H]2[C@](C)(Br)[C@H]2Oc3ncc(-c4ccc(O)cc4)c(O)c3C(=O)[C@@H]12
IC50 [1]: > 1 µg/mL | MIC (Candida albicans): > 5 µg/mL | IC50 [2]: 1 µg/mL (≈ 1.95 µM)

C/C=C/[C@@H]1[C@H]2C[C@@H](C)CC[C@@H]2C(C)=C[C@H]1C(=O)c1c(O)c(-c2ccc(OC(=O)C3CCCCC3)cc2)c[nH]c1=O
IC50 [1]: 0.4 µg/mL (≈ 0.736 µM) | MIC (Candida albicans): > 1 µg/mL | IC50 [2]: > 1.6 µg/mL

C/C=C/[C@@H]1[C@H]2C[C@@H](C)CC[C@@H]2[C@](C)(I)[C@H]2Oc3ncc(-c4ccc(O)c(I)c4)c(O)c3C(=O)[C@@H]12
MIC (Candida albicans): > 5 µg/mL

C/C=C/[C@H]1[C@@H]2C(=O)c3c(ncc(-c4ccc(O)cc4)c3O)O[C@@H]2C(C)=C2CC[C@H](C)C[C@@H]21
IC50 [1]: > 1 µg/mL | MIC (Candida albicans): > 1 µg/mL

C/C=C/[C@@H]1[C@H]2C[C@@H](C)CC[C@@H]2C(C)=C[C@H]1C(=O)c1c(O)c(-c2ccc(OCC#N)cc2)cn(CC#N)c1=O
IC50 [1]: 0.1 µg/mL (≈ 0.195 µM) | MIC (Candida albicans): 1 µg/mL (≈ 1.95 µM)

C/C=C/c1c(C(=O)c2c(O)c(-c3ccc(O)cc3)c[nH]c2=O)cc(C)c2c1C[C@@H](C)CC2
MIC (Candida albicans): > 1 µg/mL

C/C=C/[C@@H]1[C@H]2C[C@@H](C)CC[C@@H]2C(C)=C[C@H]1C(=O)c1c(OC)c(-c2ccc(OC)cc2)cn(C)c1=O
IC50 [1]: 1 µg/mL (≈ 2.1 µM) | MIC (Candida albicans): > 1 µg/mL

C/C=C/[C@@H]1[C@H]2C[C@@H](C)CC[C@@H]2C(C)=C[C@H]1C(=O)c1c(O)c(-c2ccc(O)cc2)cn(CC(N)=O)c1=O
IC50 [1]: 0.04 µg/mL (≈ 0.0815 µM) | MIC (Candida albicans): 0.031 µg/mL (≈ 0.0632 µM)

Source: ChEMBL document CHEMBL2380203, “Structure-activity relationship of cytochrome bc1 reductase inhibitor broad spectrum antifungal ilicicolin H” (Bioorg Med Chem Lett, 2013)
